# Assays:
# MDA-N [1] = test: Inhibition of the growth of breast cancer(MDA-N) cell line at 0.01 uM; type: functional; conditions: Homo sapiens
# HCT-116 [2] = test: Inhibition of the growth of colon cancer(HCT116) cell line at 0.01 uM; type: functional; conditions: Homo sapiens
# RPMI-8226 [3] = test: Inhibition of the growth of leukemia (RPMI-8226) cell line AT 0.01 uM; type: functional; conditions: Homo sapiens
# NCI-H460 [4] = test: inhibition of the growth of non-small-cell lung cancer (NCI-H460) cell line; type: functional; conditions: Homo sapiens
# SF-268 [5] = test: Inhibition of the growth of CNS cancer(SF-268) cell line at 0.01 uM; type: functional; conditions: Homo sapiens
# IGROV-1 [6] = test: inhibition of the growth of ovarian cancer(IGROVI) cell line; type: functional; conditions: Homo sapiens
# CAKI-1 [7] = test: Inhibition of the growth of renal cancer(CAKI-1) cell line at 0.01 uM; type: functional; conditions: Homo sapiens
# SK-MEL-5 [8] = test: Inhibition of the growth of melanoma cancer (SK-MEL-5) cell line at 0.01 uM; type: functional; conditions: Homo sapiens
# DU-145 [9] = test: Inhibition of the growth of prostate cancer(DU-145) cell line at 0.01 uM; type: functional; conditions: Homo sapiens
# [10] = target: T1, Bifunctional dihydrofolate reductase-thymidylate synthase (Toxoplasma gondii, UniProt Q07422)
# T1 sequence (Q07422 whole entry): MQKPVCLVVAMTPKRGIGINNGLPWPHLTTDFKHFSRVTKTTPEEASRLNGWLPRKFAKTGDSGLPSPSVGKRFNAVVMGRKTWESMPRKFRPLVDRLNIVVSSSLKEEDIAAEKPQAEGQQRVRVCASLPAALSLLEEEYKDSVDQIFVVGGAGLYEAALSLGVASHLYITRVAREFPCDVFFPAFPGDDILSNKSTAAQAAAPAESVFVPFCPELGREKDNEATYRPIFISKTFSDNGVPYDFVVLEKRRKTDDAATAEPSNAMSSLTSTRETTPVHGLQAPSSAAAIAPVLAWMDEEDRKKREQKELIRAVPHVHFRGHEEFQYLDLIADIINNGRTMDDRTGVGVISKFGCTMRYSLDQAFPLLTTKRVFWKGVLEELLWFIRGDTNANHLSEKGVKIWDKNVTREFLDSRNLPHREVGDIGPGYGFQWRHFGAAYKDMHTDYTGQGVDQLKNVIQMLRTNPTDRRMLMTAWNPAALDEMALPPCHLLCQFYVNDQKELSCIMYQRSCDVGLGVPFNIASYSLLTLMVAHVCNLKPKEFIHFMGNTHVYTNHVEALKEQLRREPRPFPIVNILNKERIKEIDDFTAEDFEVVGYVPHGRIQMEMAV
# Description: Inhibitory activity against dihydrofolate reductase (DHFR) from Toxoplasma gondii
# 786-0 [11] = test: Inhibition of the growth of renal cancer(786-0) cell line at 0.01 uM; type: functional; conditions: Homo sapiens
# NCI-H322M [12] = test: inhibition of the growth of non-small-cell lung cancer (NCI-H322M) cell line; type: functional; conditions: Homo sapiens
# SF-268 [13] = test: inhibition of the growth of CNS cancer(SF-268) cell line; type: functional; conditions: Homo sapiens
# A549 [14] = test: Inhibition of the growth of non-small-cell lung cancer (A549/ATCC) cell line; type: functional; conditions: Homo sapiens
# NCI/ADR-RES [15] = test: inhibition of the growth of breast cancer (MCF7/ADR-RES) cell line; type: functional; conditions: Homo sapiens
# OVCAR-8 [16] = test: inhibition of the growth of ovarian cancer(OVCAR-8) cell line; type: functional; conditions: Homo sapiens
# OVCAR-8 [17] = test: Inhibition of the growth of ovarian cancer(OVCAR-8) cell line at 0.01 uM; type: functional; conditions: Homo sapiens
# MOLT-4 [18] = test: Inhibition of the growth of leukemia (MOLT-4) cell line; type: functional; conditions: Homo sapiens
# NCI-H23 [19] = test: inhibition of the growth of non-small-cell lung cancer (NCI-H23) cell line at 0.01 uM; type: functional; conditions: Homo sapiens
# SF-539 [20] = test: inhibition of the growth of CNS cancer(SF-539) cell line; type: functional; conditions: Homo sapiens
# NCI-H322M [21] = test: Inhibition of the growth of non-small-cell lung cancer (NCI-H322M) cell line at 0.01 uM; type: functional; conditions: Homo sapiens
# MDA-MB-435 [22] = test: Inhibition of the growth of breast cancer (MDA-MB-435) cell line; type: functional; conditions: Homo sapiens
# MCF7 [23] = test: Inhibition of the growth of breast cancer (MCF-7) cell line at 0.01 uM; type: functional; conditions: Homo sapiens
# Dihydrofolate reductase [24] = target: T2, Dihydrofolate reductase (Rattus norvegicus, UniProt Q920D2)
# T2 sequence (Q920D2 whole entry): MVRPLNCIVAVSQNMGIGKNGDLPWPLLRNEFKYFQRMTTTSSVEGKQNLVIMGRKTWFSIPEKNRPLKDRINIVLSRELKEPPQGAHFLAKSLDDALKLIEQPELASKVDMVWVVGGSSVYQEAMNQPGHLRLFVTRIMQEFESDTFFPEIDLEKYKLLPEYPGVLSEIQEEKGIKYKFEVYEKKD
# Description: Inhibitory activity against dihydrofolate reductase (DHFR) from rat liver
# M14 [25] = test: inhibition of the growth of melanoma cancer (M14) cell line; type: functional; conditions: Homo sapiens
# SK-MEL-5 [26] = test: inhibition of the growth of melanoma cancer (SK-MEL-5) cell line; type: functional; conditions: Homo sapiens
# NCI-H522 [27] = test: Inhibition of the growth of non-small-cell lung cancer (NCI-H522) cell line; type: functional; conditions: Homo sapiens
# NCI/ADR-RES [28] = test: Inhibition of the growth of breast cancer (MCF7/ADR-RES) cell line at 0.01 uM; type: functional; conditions: Homo sapiens
# KM12 [29] = test: Inhibition of the growth of colon cancer(KM-12) cell line at 0.01 uM; type: functional; conditions: Homo sapiens
# HCT-15 [30] = test: Inhibition of the growth of colon cancer(HCT-15) cell line at 0.01 uM; type: functional; conditions: Homo sapiens
# SF-295 [31] = test: Inhibition of the growth of CNS cancer(SF-295) cell line at 0.01 uM; type: functional; conditions: Homo sapiens
# HCT-15 [32] = test: inhibition of the growth of colon cancer(HCT-15) cell line; type: functional; conditions: Homo sapiens
# SR [33] = test: Inhibition of the growth of leukemia(SR) cell line; type: functional; conditions: Homo sapiens
# MCF7 [34] = test: inhibition of the growth of breast cancer (MCF-7) cell line; type: functional; conditions: Homo sapiens
# A549 [35] = test: Inhibition of the growth of non-small-cell lung cancer (A549/ATCC) cell line at 0.01 uM; type: functional; conditions: Homo sapiens
# HCT-116 [36] = test: Inhibition of the growth of colon cancer(HCT116) cell line; type: functional; conditions: Homo sapiens
# SF-539 [37] = test: Inhibition of the growth of CNS cancer(SF-539) cell line at 0.01 uM; type: functional; conditions: Homo sapiens
# UO-31 [38] = test: Inhibition of the growth of renal cancer(UO-31) cell line at 0.01 uM; type: functional; conditions: Homo sapiens
# SNB-19 [39] = test: Inhibition of the growth of CNS cancer(SNB-19) cell line at 0.01 uM; type: functional; conditions: Homo sapiens
# Dihydrofolate reductase [40] = target: T3, Dihydrofolate reductase (Pneumocystis carinii, UniProt P16184)
# T3 sequence (P16184 whole entry): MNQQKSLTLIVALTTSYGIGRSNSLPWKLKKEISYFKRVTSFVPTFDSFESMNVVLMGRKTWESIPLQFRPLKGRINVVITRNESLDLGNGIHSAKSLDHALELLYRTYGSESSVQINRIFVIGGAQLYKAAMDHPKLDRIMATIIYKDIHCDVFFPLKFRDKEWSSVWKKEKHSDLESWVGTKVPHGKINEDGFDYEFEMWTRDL
# Description: Inhibitory activity against dihydrofolate reductase (DHFR) from Pneumocystis carinii
# RPMI-8226 [41] = test: Inhibition of the growth of leukemia (RPMI-8226) cell line; type: functional; conditions: Homo sapiens
# KM12 [42] = test: inhibition of the growth of colon cancer(KM-12) cell line; type: functional; conditions: Homo sapiens
# NCI-H23 [43] = test: inhibition of the growth of non-small-cell lung cancer (NCI-H23) cell line; type: functional; conditions: Homo sapiens
# NCI-H460 [44] = test: Inhibition of the growth of non-small-cell lung cancer (NCI-H460) cell line at 0.01 uM; type: functional; conditions: Homo sapiens
# IGROV-1 [45] = test: Inhibition of the growth of ovarian cancer(IGROVI) cell line at 0.01 uM; type: functional; conditions: Homo sapiens
# 786-0 [46] = test: inhibition of the growth of renal cancer(786-0) cell line; type: functional; conditions: Homo sapiens
# NCI-H522 [47] = test: Inhibition of the growth of non-small-cell lung cancer (NCI-H522) cell line at 0.01 uM; type: functional; conditions: Homo sapiens
# MDA-MB-435 [48] = test: Inhibition of the growth of breast cancer (MDA-MB-435) cell line at 0.01 uM; type: functional; conditions: Homo sapiens
# SNB-19 [49] = test: inhibition of the growth of CNS cancer(SNB-19) cell line; type: functional; conditions: Homo sapiens
# SF-295 [50] = test: inhibition of the growth of CNS cancer(SF-295) cell line; type: functional; conditions: Homo sapiens
# MOLT-4 [51] = test: Inhibition of the growth of leukemia (MOLT-4) cell line at 0.01 uM; type: functional; conditions: Homo sapiens
# SR [52] = test: Inhibition of the growth of leukemia(SR) cell line at 0.01 uM; type: functional; conditions: Homo sapiens
# MDA-N [53] = test: inhibition of the growth of breast cancer(MDA-N) cell line; type: functional; conditions: Homo sapiens
# UO-31 [54] = test: inhibition of the growth of renal cancer(UO-31) cell line; type: functional; conditions: Homo sapiens
# DU-145 [55] = test: inhibition of the growth of prostate cancer(DU-145) cell line; type: functional; conditions: Homo sapiens
# M14 [56] = test: Inhibition of the growth of melanoma cancer (M14) cell line at 0.01 uM; type: functional; conditions: Homo sapiens
# CAKI-1 [57] = test: inhibition of the growth of renal cancer(CAKI-1) cell line; type: functional; conditions: Homo sapiens
structure (smiles),measurement,setting,value
COc1ccc(N(C)c2ccc3nc(N)nc(N)c3n2)cc1OC,inhibition at 0.01 µM,MDA-N [1],63%
same,inhibition at 0.01 µM,HCT-116 [2],83%
same,inhibition at 0.01 µM,RPMI-8226 [3],69%
same,GI50,NCI-H460 [4],< 0.01 µM
same,inhibition at 0.01 µM,SF-268 [5],52%
same,GI50,IGROV-1 [6],< 0.01 µM
same,inhibition at 0.01 µM,CAKI-1 [7],81%
same,inhibition at 0.01 µM,SK-MEL-5 [8],83%
same,inhibition at 0.01 µM,DU-145 [9],57%
same,IC50,[10],0.00088 µM
same,inhibition at 0.01 µM,786-0 [11],53%
same,GI50,NCI-H322M [12],< 0.01 µM
same,GI50,SF-268 [13],< 0.01 µM
same,GI50,A549 [14],< 0.01 µM
same,GI50,NCI/ADR-RES [15],< 0.01 µM
same,GI50,OVCAR-8 [16],< 0.01 µM
same,inhibition at 0.01 µM,OVCAR-8 [17],76%
same,GI50,MOLT-4 [18],< 0.01 µM
same,inhibition at 0.01 µM,NCI-H23 [19],82%
same,GI50,SF-539 [20],< 0.01 µM
same,inhibition at 0.01 µM,NCI-H322M [21],53%
same,GI50,MDA-MB-435 [22],< 0.01 µM
same,inhibition at 0.01 µM,MCF7 [23],60%
same,IC50,Dihydrofolate reductase [24],0.0004 µM
same,GI50,M14 [25],< 0.01 µM
same,GI50,SK-MEL-5 [26],< 0.01 µM
same,GI50,NCI-H522 [27],< 0.01 µM
same,inhibition at 0.01 µM,NCI/ADR-RES [28],84%
same,inhibition at 0.01 µM,KM12 [29],56%
same,inhibition at 0.01 µM,HCT-15 [30],75%
same,inhibition at 0.01 µM,SF-295 [31],68%
same,GI50,HCT-15 [32],< 0.01 µM
same,GI50,SR [33],< 0.01 µM
same,GI50,MCF7 [34],< 0.01 µM
same,inhibition at 0.01 µM,A549 [35],70%
same,GI50,HCT-116 [36],< 0.01 µM
same,inhibition at 0.01 µM,SF-539 [37],67%
same,inhibition at 0.01 µM,UO-31 [38],100%
same,inhibition at 0.01 µM,SNB-19 [39],90%
same,IC50,Dihydrofolate reductase [40],0.0023 µM
same,GI50,RPMI-8226 [41],< 0.01 µM
same,GI50,KM12 [42],< 0.01 µM
same,GI50,NCI-H23 [43],< 0.01 µM
same,inhibition at 0.01 µM,NCI-H460 [44],83%
same,inhibition at 0.01 µM,IGROV-1 [45],65%
same,GI50,786-0 [46],< 0.01 µM
same,inhibition at 0.01 µM,NCI-H522 [47],59%
same,inhibition at 0.01 µM,MDA-MB-435 [48],72%
same,GI50,SNB-19 [49],< 0.01 µM
same,GI50,SF-295 [50],< 0.01 µM
same,inhibition at 0.01 µM,MOLT-4 [51],57%
same,inhibition at 0.01 µM,SR [52],69%
same,GI50,MDA-N [53],< 0.01 µM
same,GI50,UO-31 [54],< 0.01 µM
same,GI50,DU-145 [55],< 0.01 µM
same,inhibition at 0.01 µM,M14 [56],59%
same,GI50,CAKI-1 [57],< 0.01 µM
